Key:
Assay in all cases: relative viability (nuclei count vs DMSO), 5 days (fraction); higher = more cells survive
Wnt-C59 + Tozasertib = compound: CC1=NC=CC(=C1)C2=CC=C(C=C2)CC(=O)NC3=CC=C(C=C3)C4=CN=CC=C4 [Wnt-C59] + Cc1cc(Nc2cc(N3CCN(C)CC3)nc(Sc3ccc(NC(=O)C4CC4)cc3)n2)n[nH]1 [Tozasertib] (partner 0.1 µM)
How it was run: (§1)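 Lung cancer cell lines were pin-tool dosed in 1536-well plates on the day after seeding, with either a lone drug or a fixed anchor-drug dose plus five library-drug doses (not always all listed) in √10 steps. Nuclei were counted on 4× images after 5 days. Relative viability is the ratio of treated-well to vehicle-well nuclei counts, with each value a median of duplicate plates.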

Lapatinib + Luminespib = compound: CS(=O)(=O)CCNCc1ccc(-c2ccc3ncnc(Nc4ccc(OCc5cccc(F)c5)c(Cl)c4)c3c2)o1 [Lapatinib] + CCNC(=O)c1noc(-c2cc(C(C)C)c(O)cc2O)c1-c1ccc(CN2CCOCC2)cc1 [Luminespib] (partner 0.01 µM)
How it was run: as §1

Lapatinib + Vorinostat = compound: CS(=O)(=O)CCNCc1ccc(-c2ccc3ncnc(Nc4ccc(OCc5cccc(F)c5)c(Cl)c4)c3c2)o1 [Lapatinib] + O=C(CCCCCCC(=O)Nc1ccccc1)NO [Vorinostat] (partner 1 µM)
How it was run: as §1

Wnt-C59 + Alpelisib = compound: CC1=NC=CC(=C1)C2=CC=C(C=C2)CC(=O)NC3=CC=C(C=C3)C4=CN=CC=C4 [Wnt-C59] + Cc1nc(NC(=O)N2CCC[C@H]2C(N)=O)sc1-c1ccnc(C(C)(C)C(F)(F)F)c1 [Alpelisib] (partner 2 µM)
How it was run: as §1

Row | Cell Line | relative viability (Wnt-C59 + Tozasertib; first compound 0.001 µM) | relative viability (Wnt-C59 + Tozasertib; first compound 0.01 µM) | relative viability (Wnt-C59 + Tozasertib; first compound 0.03162 µM) | relative viability (Wnt-C59 + Tozasertib; first compound 0.1 µM) | relative viability (Lapatinib + Luminespib; first compound 0.02 µM) | relative viability (Lapatinib + Luminespib; first compound 0.06325 µM) | relative viability (Lapatinib + Luminespib; first compound 0.2 µM) | relative viability (Lapatinib + Luminespib; first compound 0.6325 µM) | relative viability (Lapatinib + Luminespib; first compound 2 µM) | relative viability (Lapatinib + Vorinostat; first compound 0.06325 µM) | relative viability (Lapatinib + Vorinostat; first compound 0.6325 µM) | relative viability (Lapatinib + Vorinostat; first compound 2 µM) | relative viability (Wnt-C59 + Alpelisib; first compound 0.001 µM) | relative viability (Wnt-C59 + Alpelisib; first compound 0.03162 µM) | relative viability (Wnt-C59 + Alpelisib; first compound 0.1 µM) | relative viability (Lapatinib + Vorinostat; first compound 0.02 µM) | relative viability (Lapatinib + Vorinostat; first compound 0.2 µM) | relative viability (Wnt-C59 + Alpelisib; first compound 0.01 µM)
1 | NCI-H2405 | 0.729 | 0.672 | 0.778 | 0.699 | 0.696 | 0.469 | 0.52 | 0.567 | 0.467 | 0.833 | 0.997 | 0.91 | 0.89 | 0.646 | 0.789 | – | – | –
2 | NCI-H1666 | 0.649 | 0.674 | 0.566 | 0.576 | 0.869 | 0.955 | 0.922 | 0.725 | 0.502 | 0.978 | 0.961 | 0.789 | 0.874 | 0.974 | 0.942 | 0.951 | 1.05 | 0.895
3 | NCI-H322M | 0.444 | 0.432 | 0.454 | 0.427 | 0.883 | 0.6 | 0.758 | 0.753 | 0.633 | 0.749 | 0.92 | 0.683 | 0.747 | 0.718 | 0.478 | 0.947 | 0.786 | 0.715
4 | NCI-H1563 | – | – | – | – | 0.538 | 0.509 | 0.537 | 0.461 | 0.474 | – | – | – | 0.925 | 1.07 | 0.888 | – | – | 0.852
5 | IA-LM | – | – | – | – | – | – | – | – | – | 0.795 | 0.916 | 0.885 | 0.84 | 0.759 | 0.804 | – | – | 0.862
6 | CAL-12T | 0.47 | 0.335 | 0.349 | 0.263 | – | 0.236 | 0.477 | 0.235 | 0.35 | 0.624 | 0.71 | 0.424 | 1.25 | 1.31 | 1.1 | 0.655 | 0.755 | 1.32
7 | NCI-H1395 | 0.71 | 0.668 | 0.755 | 0.844 | 0.849 | 0.761 | 0.706 | 0.599 | 0.663 | 0.704 | 0.789 | 0.646 | 0.993 | 1.08 | 1.07 | – | 0.779 | 1.13
8 | NCI-H3122 | 0.409 | 0.386 | 0.401 | 0.377 | 0.103 | 0.0758 | 0.0797 | 0.0807 | 0.0854 | 1.06 | 0.977 | 0.974 | 0.836 | 0.872 | 0.716 | 0.932 | 0.963 | 0.784
9 | HARA | 0.103 | 0.135 | 0.151 | 0.088 | – | 0.58 | 0.54 | 0.499 | 0.399 | 0.452 | 0.467 | 0.427 | 0.773 | 0.959 | 0.787 | – | 0.443 | 0.645
10 | EBC-1 | – | – | – | – | – | – | – | – | – | – | – | – | 0.91 | 0.755 | 0.79 | – | – | 0.852
11 | PC-3 [JPC-3] | 0.935 | 0.922 | 0.984 | 0.911 | 0.74 | 0.665 | 0.648 | 0.722 | 0.477 | 0.804 | 0.637 | 0.495 | 1.02 | 1.04 | 1.07 | – | – | 1.05

Source: the supplement of paper PMC10307832
